We go through 3 molecules from patent publication US6639111B2, “5-thia-ω-(substituted phenyl)-prostaglandin E alcohols, process for preparing the alcohols and pharmaceutical preparations containing the same as the active ingredient” (Ono Pharmaceutical Co., Ltd., priority 2000, dated 2003).

Series [1] concerns TNF-α. Nature of the series: Inhibitory action on producing TNF-α induced by LPS in rat. To be noted: p.o. 30 minutes before LPS (10 μg/2 ml/kg i.v.); dose giving 50% inhibition of TNF-α in blood plasma 90 minutes after LPS. Type of series: in vivo, SD-strain male rat. The procedure: LPS (10 μg/2 ml/kg) was administered into a tail vein of SD-strain male rat. Blood was collected from an abdominal large vein with heparin after 90 minutes from administration to prepare blood plasma. The amount of TNF-α in the blood plasma was determined by using ELISA Kit (Rat TNF-α Immunoassay kit, Biosource Co.). Each compound of the present invention was administered orally before 30 minutes from administration of LPS.

The nature of series [2]: Converting into carboxylic acid in the living body: concentration in blood plasma of rat (LC/MS/MS). It is filed as in vivo, SD-strain male rat. To be noted: after Example 1(1) 1 mg/kg intravenous to rat, parent alcohol and the carboxylic acid formed from it. The procedure:
The compound of Example 1(1) (1 mg/kg; alcohol compound) was administered into SD-strain male rat by intravenous route to determine each concentration of the said compound and corresponding carboxylic acid, i.e., (11α, 15α, 13E)-9-oxo-11,15-dihydroxy-16-(3-methoxymethylphenyl)-17,18,19,20-tetranor-5-thiaprost-13-enoic acid (corresponding carboxylic acid) in blood plasma. The test solution may be prepared from a physiological saline solution containing 0.3%ethanol and 0.1% POLYSORBATE 80. The concentration was determined by using liquid chromatograph mass spectrometer (LC/MS/MS).

Turning to `COCc1cccc(C[C@H](O)/C=C/[C@H]2CCC(=O)[C@@H]2CCSCCCCO)c1` [Example 1, (15α, 13E)-9-oxo-15-Hydroxy-16-(3-methoxymethylphenyl)-17,18,19,20-tetranor-5-thiaprost-13-en-1-alcohol], in series [1], the “Effective dose IC50” value came to 0.117 mg/kg.
In the case of `COCc1cccc(C[C@H](O)/C=C/[C@H]2[C@H](O)CC(=O)[C@@H]2CCSCCCCO)c1` [Example 1(1), (11α, 15α, 13E)-9-oxo-11,15-Dihydroxy-16-(3-methoxymethylphenyl)-17,18,19,20-tetranor-5-thiaprost-13-en-1-alcohol], the AUC(0-inf) in series [2] (male, SD, plasma, read-out: Concentration in blood plasma AUC0-∞) turned out to be 0.462 ± 0.078 µg·h/mL. For the same molecule, the “Effective dose IC50” value in series [1] amounted to 0.0574 mg/kg.
In the case of `COCc1cccc(C[C@H](O)/C=C/[C@H]2[C@H](O)CC(=O)[C@@H]2CCSCCCC(=O)O)c1` [corresponding carboxylic acid, (11α, 15α, 13E)-9-oxo-11,15-dihydroxy-16-(3-methoxymethylphenyl)-17,18,19,20-tetranor-5-thiaprost-13-enoic acid], the “Concentration in blood plasma AUC0-∞” value in series [2] turned out to be 0.099 ± 0.026 µg·h/mL.
